From US20260355196A1, “INHIBITORS AND DEGRADERS OF PIP4K PROTEIN” (Larkspur Biosciences, Inc., priority 2023, published 2026) come the findings set out here.

One assay addresses T1, PIP4K2C (Homo sapiens, UniProt Q8TBX8).
T1 sequence (Q8TBX8 1-421): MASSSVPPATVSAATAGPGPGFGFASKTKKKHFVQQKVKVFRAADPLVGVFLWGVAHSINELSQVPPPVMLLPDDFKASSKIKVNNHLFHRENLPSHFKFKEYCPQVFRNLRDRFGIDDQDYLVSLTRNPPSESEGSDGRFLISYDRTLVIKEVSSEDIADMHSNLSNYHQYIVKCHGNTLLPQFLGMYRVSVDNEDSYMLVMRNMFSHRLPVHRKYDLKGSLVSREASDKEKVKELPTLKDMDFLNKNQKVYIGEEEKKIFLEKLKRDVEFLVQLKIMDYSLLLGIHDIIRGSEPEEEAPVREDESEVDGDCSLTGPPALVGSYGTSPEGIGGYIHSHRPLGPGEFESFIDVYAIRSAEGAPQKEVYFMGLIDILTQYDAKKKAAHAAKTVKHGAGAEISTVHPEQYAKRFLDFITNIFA
Description: HiBiT PIP4K2C degradation assay in MOLT-4 cells (endogenous PIP4K2C C-terminally tagged with HiBiT). It is filed as cell-based. Also noted: untagged in primary human PBMCs and monocyte-derived dendritic cells. The settings on record: 6 hours of incubation time, rather than 24 hours; MOLT-4, top concentration 10 micromolar; read-out: HiBIT-degradation MOLT4 PIP4k2C DC50 (6 hours, marked *). A digest of the protocol:
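MOLT-4 cells with endogenous PIP4K2C C-terminally HiBiT-tagged by CRISPR were treated with a 10-point, 3-fold dilution series from 10 micromolar, in duplicate, for 24 h or 6 h at 37 C. Remaining tagged protein read by HiBiT lytic luminescence; DC50 from Hill-equation fit.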
What is called DC50 is the concentration giving 50% degradation. For the molecule `O=C1CCC(Nc2ccc(N3CCC(N4CCC(NC(=O)[C@H]5CC[C@H](Nc6ncc(F)c(-c7cccc(N8CCCCC8)c7)n6)CC5)CC4)CC3)c(F)c2)C(=O)N1` (stereo partly drawn) [Compound 531, trans-N-(1′-(4-((2,6-dioxopiperidin-3-yl)amino)-2-fluorophenyl)-[1,4′-bipiperidin]-4-yl)-4-((5-fluoro-4-(3-(piperidin-1-yl)phenyl)pyrimidin-2-yl)amino)cyclohexane-1-carboxamide], the 50% degradation concentration (DC50) was under 500 nM.
As to `O=C1CCC(Nc2ccc(N3CCC(N4CCC(NC(=O)[C@H]5CC[C@H](Nc6ncc(F)c(-c7cccc(C8CC8)c7)n6)CC5)CC4)CC3)c(F)c2)C(=O)N1` (stereo partly drawn) [Compound 533, trans-4-((4-(3-cyclopropylphenyl)-5-fluoropyrimidin-2-yl)amino)-N-(1′-(4-((2,6-dioxopiperidin-3-yl)amino)-2-fluorophenyl)-[1,4′-bipiperidin]-4-yl)cyclohexane-1-carboxamide], the DC50 is under 500 nM.
The same measure, in the same setting: for `O=C1CCC(Nc2ccc(N3CCC(N4CCC(C(=O)N[C@H]5CC[C@H](Nc6ncc(F)c(-c7cccc(N8CCCOC8=O)c7)n6)CC5)CC4)CC3)c(F)c2)C(=O)N1` (stereo partly drawn) [Compound 597, trans-1′-(4-((2,6-dioxopiperidin-3-yl)amino)-2-fluorophenyl)-N-(4-((5-fluoro-4-(3-(2-oxo-1,3-oxazinan-3-yl)phenyl)pyrimidin-2-yl)amino)cyclohexyl)-[1,4′-bipiperidine]-4-carboxamide] the value was under 500 nM; for `O=C1CCC(Nc2ccc(N3CCN(CC4CCN(C(=O)[C@H]5CC[C@H](Nc6ncc(F)c(-c7cccc(N8CCOCC8=O)c7)n6)CC5)CC4)CC3)c(F)c2)C(=O)N1` (stereo partly drawn) [Compound 553, trans-3-((3-fluoro-4-(4-((1-(4-((5-fluoro-4-(3-(3-oxomorpholino)phenyl)pyrimidin-2-yl)amino)cyclohexane-1-carbonyl)piperidin-4-yl)methyl)piperazin-1-yl)phenyl)amino)piperidine-2,6-dione], under 500 nM; for `O=C1CCC(Nc2ccc(N3CCN([C@H]4CC[C@H](NC(=O)[C@H]5CC[C@H](Nc6ncc(F)c(-c7cccc(N8CCCCC8=O)c7)n6)CC5)CC4)CC3)c(F)c2)C(=O)N1` (stereo partly drawn) [Compound 564, (1r,4R)—N-((1r,4R)-4-(4-(4-((2,6-dioxopiperidin-3-yl)amino)-2-fluorophenyl)piperazin-1-yl)cyclohexyl)-4-((5-fluoro-4-(3-(2-oxopiperidin-1-yl)phenyl)pyrimidin-2-yl)amino)cyclohexane-1-carboxamide], under 500 nM.
On the same count and under the same terms, for `O=C1CCC(Nc2ccc(C3CCN([C@H]4CC[C@H](C(=O)N[C@H]5CC[C@H](Nc6ncc(F)c(-c7ccnc(N8CCCCC8=O)c7)n6)CC5)CC4)CC3)c(F)c2)C(=O)N1` (stereo partly drawn) [Compound 571, trans-(1r,4R)-4-(4-(4-((2,6-dioxopiperidin-3-yl)amino)-2-fluorophenyl)piperidin-1-yl)-N-((1r,4R)-4-((5-fluoro-4-(2-(2-oxopiperidin-1-yl)pyridin-4-yl)pyrimidin-2-yl)amino)cyclohexyl)cyclohexane-1-carboxamide] the value was under 500 nM.
Still for that read-out and setting: the result for `O=C1CCC(Nc2ccc(C3CCN(C4CCC(NC(=O)C5CCC(Nc6ncc(F)c(-c7cccc(-c8ccc[nH]c8=O)c7)n6)CC5)CC4)CC3)c(F)c2)C(=O)N1` [Compound 435, trans-(1r,4R)—N-((1S,4R)-4-(4-(4-(((S)-2,6-dioxopiperidin-3-yl)amino)-2-fluorophenyl)piperidin-1-yl)cyclohexyl)-4-((5-fluoro-4-(3-(2-oxo-1,2-dihydropyridin-3-yl)phenyl)pyrimidin-2-yl)amino)cyclohexane-1-carboxamide] reads under 500 nM; that for `Cc1ccn(-c2cccc(-c3nc(N[C@H]4CC[C@H](C(=O)N5CCC(O)(CN6CCC(c7ccc(NC8CCC(=O)NC8=O)cc7F)CC6)CC5)CC4)ncc3F)c2)c(=O)c1` (stereo partly drawn) [Compound 472, trans-3-[3-fluoro-4-[1-[[1-[4-[[5-fluoro-4-[3-(4-methyl-2-oxo-1-pyridyl)phenyl]pyrimidin-2-yl]amino]cyclohexanecarbonyl]-4-hydroxy-4-piperidyl]methyl]-4-piperidyl]anilino]piperidine-2,6-dione], under 500 nM; that for `O=C1CCC(Nc2ccc(N3CCC(N4CCN(C(=O)O[C@H]5CC[C@H](Nc6ncc(F)c(-c7cccc(-n8ccccc8=O)c7)n6)CC5)CC4)CC3)c(F)c2)C(=O)N1` (stereo partly drawn) [Compound 698, trans-4-((5-fluoro-4-(3-(2-oxopyridin-1 (2H)-yl)phenyl)pyrimidin-2-yl)amino)cyclohexyl 4-(1-(4-((2,6-dioxopiperidin-3-yl)amino)-2-fluorophenyl)piperidin-4-yl)piperazine-1-carboxylate], under 500 nM.
For the molecule `Cn1nc([C@H]2CCC(=O)NC2=O)c2ccc(C3CCN(CC4CCN(C(=O)O[C@H]5CC[C@H](Nc6ncc(F)c(-c7cccc(-n8ccccc8=O)c7)n6)CC5)CC4)CC3)cc21` (single isomer, unassigned) [Compound 639], the DC50 is under 500 nM.
Same read-out and setting: for `O=C1CCC(Nc2ccc(N3CCN(C[C@H]4CC[C@H](CC(=O)N[C@H]5CC[C@H](Nc6ncc(F)c(-c7cccc(N8CCOCC8=O)c7)n6)CC5)CC4)CC3)c(F)c2)C(=O)N1` (stereo partly drawn) [Compound 562, trans-2-((1r,4R)-4-((4-(4-((2,6-dioxopiperidin-3-yl)amino)-2-fluorophenyl)piperazin-1-yl)methyl)cyclohexyl)-N-((1r,4R)-4-((5-fluoro-4-(3-(3-oxomorpholino)phenyl)pyrimidin-2-yl)amino)cyclohexyl)acetamide] the value was under 500 nM; for `Cc1ccc(=O)n(-c2cccc(-c3nc(N[C@H]4CC[C@H](C(=O)N[C@H]5CC[C@H](N6CCC(c7ccc(NC8CCC(=O)NC8=O)cc7F)CC6)CC5)CC4)ncc3F)c2)c1` (stereo partly drawn) [Compound 551, trans-N-(trans-4-(4-(4-((2,6-dioxopiperidin-3-yl)amino)-2-fluorophenyl)piperidin-1-yl)cyclohexyl)-4-((5-fluoro-4-(3-(5-methyl-2-oxopyridin-1 (2H)-yl)phenyl)pyrimidin-2-yl)amino)cyclohexane-1-carboxamide], under 500 nM.
Same read-out and setting: for `O=C1CC[C@@H](Nc2ccc(C3CCN(CC4CCN(C(=O)[C@H]5CC[C@H](Nc6ncc(F)c(-c7cccc(-n8ccccc8=O)c7)n6)CC5)CC4)CC3)c(F)c2)C(=O)N1` (single isomer, unassigned) [Compound 455] the value was under 500 nM.
For the molecule `Cn1nc(N2CCC(=O)NC2=O)c2cc(F)c(C3CCN(CC4CCN(C(=O)[C@H]5CC[C@H](Nc6ncc(F)c(-c7cccc(-n8ccccc8=O)c7)n6)CC5)CC4)CC3)cc21` [Compound 540, trans-1-(5-fluoro-6-(1-((1-((1r,4r)-4-((5-fluoro-4-(3-(2-oxopyridin-1(2H)-yl)phenyl)pyrimidin-2-yl)amino)cyclohexane-1-carbonyl)piperidin-4-yl)methyl)piperidin-4-yl)-1-methyl-1H-indazol-3-yl)dihydropyrimidine-2,4(1H,3H)-dione], the DC50 was over 5000 nM.
`Cc1ccc(=O)n(-c2cccc(-c3nc(N[C@H]4CC[C@H](NC(=O)[C@H]5CC[C@H](N6CCC(c7ccc(NC8CCC(=O)NC8=O)cc7F)CC6)CC5)CC4)ncc3F)c2)c1` (stereo partly drawn) [Compound 574, trans-(1r,4R)-4-(4-(4-((2,6-dioxopiperidin-3-yl)amino)-2-fluorophenyl)piperidin-1-yl)-N-((1r,4R)-4-((5-fluoro-4-(3-(5-methyl-2-oxopyridin-1 (2H)-yl)phenyl)pyrimidin-2-yl)amino)cyclohexyl)cyclohexane-1-carboxamide]: the DC50 is under 500 nM.
Still for that read-out and setting: the result for `Cn1nc(C2CCC(=O)NC2=O)c2ccc(C3CCN(CC4CCN(C(=O)O[C@H]5CC[C@H](Nc6ncc(F)c(-c7cccc(-c8ccccc8)c7)n6)CC5)CC4)CC3)cc21` (stereo partly drawn) [Compound 647, trans-4-((4-([1,1′-biphenyl]-3-yl)-5-fluoropyrimidin-2-yl)amino)cyclohexyl 4-((4-(3-(2,6-dioxopiperidin-3-yl)-1-methyl-1H-indazol-6-yl)piperidin-1-yl)methyl)piperidine-1-carboxylate] reads under 500 nM.
For `O=C1CCC(Nc2ccc(C3CCN([C@H]4CC[C@H](NC(=O)[C@H]5CC[C@H](Nc6ncc(F)c(-c7cccc(-n8ccccc8=O)n7)n6)CC5)CC4)CC3)c(F)c2)C(=O)N1` (stereo partly drawn) [Compound 520, trans-N-(trans-4-(4-(4-((2,6-dioxopiperidin-3-yl)amino)-2-fluorophenyl)piperidin-1-yl)cyclohexyl)-4-((5-fluoro-4-(2-oxo-2H-[1,2′-bipyridin]-6′-yl)pyrimidin-2-yl)amino)cyclohexane-1-carboxamide], the DC50 is under 500 nM.

Staying with this assay, now noted: 24 hours incubation, MOLT-4, top concentration 10 micromolar; read-out: HiBIT-degradation MOLT4 PIP4k2C 24 hours DC50.
As to `O=C1CCC(Nc2ccc(C3CCN(CC4CCN(C(=O)[C@H]5CC[C@H](Nc6ncc(F)c(-c7cccc(-n8ccccc8=O)c7)n6)CC5)CC4)CC3)c(F)c2)C(=O)N1` (stereo partly drawn) [Compound 318, trans-3-((3-fluoro-4-(1-((1-(4-((5-fluoro-4-(3-(2-oxopyridin-1(2H)-yl)phenyl)pyrimidin-2-yl)amino)cyclohexane-1-carbonyl)piperidin-4-yl)methyl)piperidin-4-yl)phenyl)amino)piperidine-2,6-dione], the half-maximal degradation concentration (DC50) was under 500 nM.
